Data taken from patent EP0426021A1, “Condensed imidazole derivatives and processes for preparation thereof” (FUJISAWA PHARMACEUTICAL CO., LTD., priority 1989, dated 1991).

System: spontaneous hypertensive rats
Details: oral dose of 100 mg/kg, dissolved in water, male spontaneous hypertensive rats
Method: (B) Effect on spontaneous hypertensive rats
14 to 17-week-old male spontaneous hypertensive rats with mean arterial blood pressure of about 150 mmHg, weighing 270-326 g, were used. The animals were cannulated in the left femoral artery and the mean blood pressure and heart rate were measured with a pressure-transducer. The drugs were given orally. The animals were deprived of food for about 18 hours before oral dosing. The test drugs were dissolved in water, and given in oral dose of 100 mg/kg.

Structure (SMILES): CCCCc1nc2cccnc2n1Cc1ccc(-c2ccccc2-c2nnn[n-]2)cc1.[Na+] [compound ①, Sodium salt of 2-butyl-3-[[2′-(1H-tetrazol-5-yl)biphenyl-4-yl]methyl]-3H-imidazo[4,5-b]pyridine]
- Effect Max (mean ratio of maximum decrease of blood pressure): 17.6%
